Patent US20080248511A1, “METHODS TO QUENCH LIGHT FROM OPTICAL REACTIONS” (priority 2007, published 2008)
Where two headings read alike, the source gives them in different places.

Legend:
firefly luciferase [1] = target: T1, firefly luciferase (Photinus pyralis, UniProt P08659); experiment: biochemical; settings: for remaining activity at 0.5 %: read-out: Retained Firefly Luciferase Luminescence (%)
Protocol: (§1) The retained luminescence for each luciferase was calculated by dividing the luminescence in the presence of the detergent by the luminescence in the absence of the test detergent. The selectivity value for each of the test detergents was determined by dividing the retained firefly luciferase luminescence by the retained Renilla luciferase luminescence.
(§2) A set of detergents (Table 2; Sigma-Aldrich) was added at 0.5% (from a 5% or 10% stock solution) to either Luciferase Assay Reagent (Promega) or Renilla Luciferase Assay Reagent (Promega) and allowed to equilibrate at room temperature.
(§3) The firefly luciferase and Renilla luciferase enzymes were diluted as follows. Firefly luciferase was diluted to 14 ng/ml in Phosphate Buffered Saline (PBS) containing 0.1% of the protein carrier Prionex® (Pentapharm). Renilla luciferase was diluted to 10 ng/ml in 1× Renilla Luciferase Lysis Buffer (Promega) containing 0.1% Prionex®. The Renilla Luciferase Lysis Buffer […] detergent micelles when using the Renilla Luciferase Assay Reagent. In the absence of other detergents, this prevents sequestering of coelenterazine which inhibits Renilla luciferase-mediated luminescence.
(§4) The luciferase reactions were initiated by adding 40 μl of either the firefly or Renilla luciferase enzyme solution to 200 μl of the appropriate reagent solution (firefly luciferase enzyme solution+firefly luciferase reagent solution or Renilla luciferase enzyme solution+Renilla luciferase reagent solution, respectively). The reactions were performed in an opaque white, 96-well plate and luminescence was measured for 0.5 seconds per well using a Turner BioSystems Veritas™ Microplate luminometer. The retained firefly luciferase and Renilla luciferase luminescence, as well as the selectivity values for each detergent, were calculated (Table 2).

Renilla luciferase [2] = target: T2, Renilla luciferase (Renilla reniformis, UniProt P27652); experiment: biochemical; type: biochemical; settings: for remaining activity at 0.5 %: read-out: Retained Renilla Luciferase Luminescence (%)
T2 sequence (P27652 1-311): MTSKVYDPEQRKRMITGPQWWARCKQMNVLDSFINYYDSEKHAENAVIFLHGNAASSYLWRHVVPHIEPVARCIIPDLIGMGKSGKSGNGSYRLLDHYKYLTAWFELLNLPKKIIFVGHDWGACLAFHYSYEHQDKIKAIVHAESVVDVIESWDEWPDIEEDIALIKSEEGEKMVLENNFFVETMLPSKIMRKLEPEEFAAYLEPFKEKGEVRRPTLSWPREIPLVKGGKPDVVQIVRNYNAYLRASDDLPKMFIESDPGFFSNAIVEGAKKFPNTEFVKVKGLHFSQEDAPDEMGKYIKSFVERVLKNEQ
Protocol: as §1, §2, §3, §4

firefly luciferase [3] = target: T1, firefly luciferase; experiment: Quaternary ammonium/phosphonium detergent screen, firefly luciferase (Example 5); type: biochemical; settings: Tergitol NP-9 present
Protocol: (§5) Each detergent was added at 0.2% to a reagent solution containing 50 mM Tricine pH 8.3, 3.5 mM MgSO4, 1 mM CDTA, 30 mM thiourea and 0.5% Tergitol NP-9. This solution or one not containing a detergent inhibitor was used to resuspend the Bright-Glo™ luciferin substrate (Promega).
(§6) The luciferase reactions were initiated by adding 100 μl of the firefly luciferase or Renilla luciferase enzyme solutions to 100 μl of reagent solution. The reactions were performed as described above. […] The detergent concentrations listed refer to the final concentration in the reaction.

Renilla luciferase [4] = target: T2, Renilla luciferase; experiment: Quaternary ammonium/phosphonium detergent screen, Renilla luciferase (Example 5); type: biochemical; settings: for remaining activity at 0.1 % / Retained Renilla Luciferase Luminescence (%): Tergitol NP-9 present
Protocol: as §5, §6

firefly luciferase [5] = target: T1, firefly luciferase; experiment: Quaternary ammonium/phosphonium detergent screen, firefly luciferase (Example 5); type: biochemical; settings: final conc. 0.03% detergent, Tergitol NP-9 present; for remaining activity at 0.03 %: read-out: Retained Firefly Luciferase Luminescence (%)
Renilla luciferase [6] = target: T2, Renilla luciferase; experiment: Quaternary ammonium/phosphonium detergent screen, Renilla luciferase (Example 5); type: biochemical; settings: final conc. 0.03% detergent; for remaining activity at 0.03 % / Retained Renilla Luciferase Luminescence (%): Tergitol NP-9 present; for remaining activity at 0.03 %: read-out: Retained Renilla Luciferase Luminescence (%)
[7] = retained firefly / retained Renilla, 0.5% detergent
[8] = 0.5% detergent in Luciferase Assay Reagent
[9] = 0.5% detergent in Renilla Luciferase Assay Reagent
[10] = final conc. 0.10% detergent, read-out: Retained Firefly Luciferase Luminescence (%)
[11] = final conc. 0.10% detergent, read-out: Retained Renilla Luciferase Luminescence (%)

T1 sequence (P08659 whole entry): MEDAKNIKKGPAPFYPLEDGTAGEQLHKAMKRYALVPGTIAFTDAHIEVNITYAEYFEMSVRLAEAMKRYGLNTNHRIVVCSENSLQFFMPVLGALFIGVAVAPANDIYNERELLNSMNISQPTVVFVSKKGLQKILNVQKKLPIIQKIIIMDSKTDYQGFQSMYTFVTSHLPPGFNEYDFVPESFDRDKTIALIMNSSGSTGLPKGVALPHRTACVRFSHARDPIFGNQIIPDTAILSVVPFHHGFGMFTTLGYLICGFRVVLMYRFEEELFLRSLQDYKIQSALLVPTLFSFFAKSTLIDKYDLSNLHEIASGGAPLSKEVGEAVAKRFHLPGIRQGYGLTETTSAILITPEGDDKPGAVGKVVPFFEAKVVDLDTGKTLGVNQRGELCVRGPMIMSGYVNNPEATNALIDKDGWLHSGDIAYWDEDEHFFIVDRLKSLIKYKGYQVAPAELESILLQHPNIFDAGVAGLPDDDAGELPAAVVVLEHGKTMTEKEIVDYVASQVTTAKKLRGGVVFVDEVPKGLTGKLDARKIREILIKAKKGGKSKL

With `C[N+](C)(C)CCBr.[Br-]` [(2-Bromoethyl)trimethylammonium bromide] the remaining activity at 0.5 % (firefly luciferase [1]) was 91.4%, the remaining activity at 0.5 % (Renilla luciferase [2]) was 78.4% and the “Selectivity Value” (Renilla luciferase [2]; [7]) was 1.2.

`[Br-].c1ccc([P+](c2ccccc2)(c2ccccc2)c2ccccc2)cc1` [Tetraphenylphosphonium bromide] was tested, and the remaining activity at 0.5 % (firefly luciferase [1]; [8]) was 90.9%, the remaining activity at 0.5 % (Renilla luciferase [2]; [9]) was 24.5% and the “Selectivity Value” (Renilla luciferase [2]; [7]) was 3.7.

Sodium deoxycholate was tested, and the “Retained Firefly Luciferase Luminescence (%)” value (firefly luciferase [1]; [8]) was 39.75%, the “Retained Renilla Luciferase Luminescence (%)” value (Renilla luciferase [2]; [9]) was 60.64% and the “Selectivity Value” (Renilla luciferase [2]; [7]) was 0.7.

For `C[N+](C)(C)CCCBr.[Br-]` [(3-Bromopropyl)trimethylammonium bromide], the remaining activity at 0.5 % (firefly luciferase [1]; [8]) was 72.2%, the remaining activity at 0.5 % (Renilla luciferase [2]; [9]) was 71.6% and the “Selectivity Value” (Renilla luciferase [2]; [7]) was 1.0.

In the case of `CCCCCCCCCC[N+](C)(C)CCCS(=O)(=O)[O-]` [Zwittergent 3-10], the “Retained Firefly Luciferase Luminescence (%)” value (firefly luciferase [1]; [8]) is reported as 73.92%, the “Retained Renilla Luciferase Luminescence (%)” value (Renilla luciferase [2]; [9]) is reported as 33.45% and the “Selectivity Value” (Renilla luciferase [2]; [7]) is reported as 2.2.

With `CCCCCCCC[N+](CCCCCCCC)(CCCCCCCC)CCCCCCCC.[Br-]` [Tetraoctylammonium bromide] the remaining activity at 0.5 % (firefly luciferase [1]; [8]) was 43.7%, the remaining activity at 0.5 % (Renilla luciferase [2]; [9]) was 43.1% and the “Selectivity Value” (Renilla luciferase [2]; [7]) was 1.0.

For `C[C@H](CCC(=O)NCCS(=O)(=O)O)[C@H]1CC[C@H]2[C@@H]3CC[C@@H]4C[C@H](O)CC[C@]4(C)[C@H]3CC[C@]12C` [Taurolithocholic acid], the remaining activity at 0.5 % (firefly luciferase [1]; [8]) was 81.3%, the remaining activity at 0.5 % (Renilla luciferase [2]; [9]) was 75% and the “Selectivity Value” (Renilla luciferase [2]; [7]) was 1.1.

In the case of Decamthonium bromide, the “Retained Firefly Luciferase Luminescence (%)” value (firefly luciferase [1]; [8]) is reported as 85.42%, the “Retained Renilla Luciferase Luminescence (%)” value (Renilla luciferase [2]; [9]) is reported as 76.68% and the “Selectivity Value” (Renilla luciferase [2]; [7]) is reported as 1.1.

With `C[C@H](CCC(=O)NCCC[N+](C)(C)CC(O)CS(=O)(=O)[O-])[C@H]1CC[C@H]2[C@@H]3[C@H](O)C[C@@H]4C[C@H](O)CC[C@]4(C)[C@H]3C[C@H](O)[C@]12C` (stereo partly drawn) [CHAPSO] the “Retained Firefly Luciferase Luminescence (%)” value (firefly luciferase [1]; [8]) was 70.07%, the “Retained Renilla Luciferase Luminescence (%)” value (Renilla luciferase [2]; [9]) was 52.15% and the “Selectivity Value” (Renilla luciferase [2]; [7]) was 1.3.

s-Acetylthiochloline bromide was tested, and the “Retained Firefly Luciferase Luminescence (%)” value (firefly luciferase [1]; [8]) was 70.97%, the “Retained Renilla Luciferase Luminescence (%)” value (Renilla luciferase [2]; [9]) was 90.65% and the “Selectivity Value” (Renilla luciferase [2]; [7]) was 0.8.

`C[N+](C)(C)CCCCCC[N+](C)(C)C` [Hexamethonium bromide] was tested, and the remaining activity at 0.5 % (firefly luciferase [1]; [8]) was 96%, the remaining activity at 0.5 % (Renilla luciferase [2]; [9]) was 91% and the “Selectivity Value” (Renilla luciferase [2]; [7]) was 1.1.

In the case of `C[P+](CCCC(=O)O)(c1ccccc1)c1ccccc1.[Cl-]` [(3-Carboxyl-propyl)-methyl-diphenyl-phosphonium chloride], the remaining activity at 0.1 % (firefly luciferase [3]; read-out: Retained Firefly Luciferase Luminescence (%), final conc. 0.10% detergent) is reported as 102%, the “Selectivity Value” (Renilla luciferase [4]; final conc. 0.10% detergent) is reported as 0.9 and the remaining activity at 0.1 % (Renilla luciferase [4]; read-out: Retained Renilla Luciferase Luminescence (%), final conc. 0.10% detergent) is reported as 89%. The remaining activity at 0.03 % (firefly luciferase [5]) was 98%, the “Selectivity Value” (Renilla luciferase [6]) was 1.0 and the remaining activity at 0.03 % (Renilla luciferase [6]) was 99%.

`CC[N+](C)(C)c1cccc(O)c1` [Edrophonium chloride] was tested, and the remaining activity at 0.1 % (firefly luciferase [3]; [10]) was 102%, the “Selectivity Value” (Renilla luciferase [4]; final conc. 0.10% detergent) was 1.1 and the remaining activity at 0.1 % (Renilla luciferase [4]; [11]) was 89%. The remaining activity at 0.03 % (firefly luciferase [5]) was 98%, the “Selectivity Value” (Renilla luciferase [6]) was 1.0 and the remaining activity at 0.03 % (Renilla luciferase [6]) was 93%.

With `CC[N+](CC)(CCC(=O)Nc1c(C)cccc1C)Cc1ccccc1.O=C([O-])c1ccccc1` [Benzyldiethyl(2,6-xylycarbamoylethyl)-ammonium benzoate] the “Retained Firefly Luciferase Luminescence (%)” value (firefly luciferase [3]; final conc. 0.10% detergent) was 102%, the “Selectivity Value” (Renilla luciferase [4]; final conc. 0.10% detergent) was 2.2 and the “Retained Renilla Luciferase Luminescence (%)” value (Renilla luciferase [4]; final conc. 0.10% detergent) was 46%. The “Retained Firefly Luciferase Luminescence (%)” value (firefly luciferase [5]) was 110%, the “Selectivity Value” (Renilla luciferase [6]) was 1.5 and the “Retained Renilla Luciferase Luminescence (%)” value (Renilla luciferase [6]) was 74%.

In the case of `CCCC[P+](CCCC)(CCCC)Cc1ccc(C)cc1.[Cl-]` [(4-Methylbenzyl)tributylphosphonium chloride], the remaining activity at 0.1 % (firefly luciferase [3]; [10]) is reported as 106%, the “Selectivity Value” (Renilla luciferase [4]; final conc. 0.10% detergent) is reported as 3.3 and the remaining activity at 0.1 % (Renilla luciferase [4]; [11]) is reported as 32%. The remaining activity at 0.03 % (firefly luciferase [5]) was 99%, the “Selectivity Value” (Renilla luciferase [6]) was 1.5 and the remaining activity at 0.03 % (Renilla luciferase [6]) was 65%.

In the case of `C[N+]1(C)CCCc2cccc(O)c21.[I-]` [1,1-Dimethyl-8-hydroxy-1,2,3,4-tetrahydroquinolium iodide], the “Retained Firefly Luciferase Luminescence (%)” value (firefly luciferase [3]; final conc. 0.10% detergent) is reported as 68%, the “Selectivity Value” (Renilla luciferase [4]; final conc. 0.10% detergent) is reported as 0.8 and the “Retained Renilla Luciferase Luminescence (%)” value (Renilla luciferase [4]; final conc. 0.10% detergent) is reported as 82%. The “Retained Firefly Luciferase Luminescence (%)” value (firefly luciferase [5]) was 81%, the “Selectivity Value” (Renilla luciferase [6]) was 0.9 and the “Retained Renilla Luciferase Luminescence (%)” value (Renilla luciferase [6]) was 88%.

With `C=C(C)[P+](C)(c1ccccc1)c1ccccc1.[I-]` [Isopropenylmethyldiphenylphosphonium iodide] the remaining activity at 0.1 % (firefly luciferase [3]; [10]) was 109%, the “Selectivity Value” (Renilla luciferase [4]; final conc. 0.10% detergent) was 2.1 and the remaining activity at 0.1 % (Renilla luciferase [4]; [11]) was 51%. For the same compound, the remaining activity at 0.03 % (firefly luciferase [5]) was 95%, the “Selectivity Value” (Renilla luciferase [6]) was 1.2 and the remaining activity at 0.03 % (Renilla luciferase [6]) was 82%.

In the case of Benzalkonium, the “Retained Firefly Luciferase Luminescence (%)” value (firefly luciferase [1]; [8]) is reported as 0.20%, the “Retained Renilla Luciferase Luminescence (%)” value (Renilla luciferase [2]; [9]) is reported as 0.04% and the “Selectivity Value” (Renilla luciferase [2]; [7]) is reported as 5.0.

With Tergitol NP-9 the “Retained Firefly Luciferase Luminescence (%)” value (firefly luciferase [1]; [8]) was 79.16%, the “Retained Renilla Luciferase Luminescence (%)” value (Renilla luciferase [2]) was 27.14% and the “Selectivity Value” (Renilla luciferase [2]) was 2.9.

For `C[C@H](CCC(=O)NCCC[N+](C)(C)CCCS(=O)(=O)[O-])[C@H]1CC[C@H]2[C@@H]3[C@H](O)C[C@@H]4C[C@H](O)CC[C@]4(C)[C@H]3C[C@H](O)[C@]12C` [CHAPS], the “Retained Firefly Luciferase Luminescence (%)” value (firefly luciferase [1]; [8]) was 73.84%, the “Retained Renilla Luciferase Luminescence (%)” value (Renilla luciferase [2]; [9]) was 47.29% and the “Selectivity Value” (Renilla luciferase [2]; [7]) was 1.6.

With `C[N+](C)(C)CCCCCBr.[Br-]` [(5-Bromopentyl)trimethylammonium bromide] the remaining activity at 0.5 % (firefly luciferase [1]; [8]) was 79.1%, the remaining activity at 0.5 % (Renilla luciferase [2]; [9]) was 75% and the “Selectivity Value” (Renilla luciferase [2]; [7]) was 1.1.

With `C[P+](C)(Cc1ccc([N+](=O)[O-])cc1)c1ccccc1.[Br-]` [Dimethyl(4-nitrobenzyl)phenylphosphonium bromide] the remaining activity at 0.1 % (firefly luciferase [3]; [10]) was 106%, the “Selectivity Value” (Renilla luciferase [4]; final conc. 0.10% detergent) was 2.2 and the remaining activity at 0.1 % (Renilla luciferase [4]; [11]) was 49%. The remaining activity at 0.03 % (firefly luciferase [5]) was 99%, the “Selectivity Value” (Renilla luciferase [6]) was 1.3 and the remaining activity at 0.03 % (Renilla luciferase [6]) was 78%.

`CCCCCCCCCCCCCCCC[N+](C)(C)Cc1ccccc1.[Cl-]` [Benzyldimethylhexadecylammonium chloride] was tested, and the remaining activity at 0.1 % (firefly luciferase [3]; [10]) was 97%, the “Selectivity Value” (Renilla luciferase [4]; final conc. 0.10% detergent) was 32.2 and the remaining activity at 0.1 % (Renilla luciferase [4]; [11]) was 3%. For the same compound, the remaining activity at 0.03 % (firefly luciferase [5]) was 100%, the “Selectivity Value” (Renilla luciferase [6]) was 2.1 and the remaining activity at 0.03 % (Renilla luciferase [6]) was 47%.
